Measured values from article PMC10547238, “Discovery of Potent Tetrazole Free Fatty Acid Receptor 2 Antagonists” (Journal of Medicinal Chemistry, 2023).
In brackets after ≈: the same amount, converted by molar mass.

Columns and labels:
[1] = target: T1, hFFA2 (Homo sapiens, UniProt O15552); test: cAMP assay, antagonist mode, Flp-In T-Rex 293 cells expressing hFFA2-eYFP; type: cell-based; conditions: for cAMP pIC50: hFFA2, antagonist mode, propionate at EC80, mean ± SEM, three or more experiments; for LLEcAMP: pIC50, cAMP – ClogP; for LLEcAMP-logD: pIC50, cAMP – logD7.4; for IC50: read-out: hFFA2 cAMP (pIC50) (converted)
T1 construct: expressed in transfected cells; host or cells: Flp-In T-Rex 293 cells, doxycycline-induced
T1 sequence (O15552 1-330): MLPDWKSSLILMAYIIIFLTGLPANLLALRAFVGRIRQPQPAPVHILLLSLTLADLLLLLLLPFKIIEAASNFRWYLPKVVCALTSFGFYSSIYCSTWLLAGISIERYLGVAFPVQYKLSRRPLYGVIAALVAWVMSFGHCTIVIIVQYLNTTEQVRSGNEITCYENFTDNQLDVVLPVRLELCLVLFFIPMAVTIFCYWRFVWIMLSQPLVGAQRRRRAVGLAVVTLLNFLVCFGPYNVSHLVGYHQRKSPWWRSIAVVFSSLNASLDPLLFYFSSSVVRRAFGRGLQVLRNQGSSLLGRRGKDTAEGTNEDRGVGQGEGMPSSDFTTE
Experimental: (§1) The activity of the compounds on FFA2 was evaluated in two different functional antagonist assays, both using propionate at EC80 as the agonist. The GTPγS assay reflects receptor activation by directly assessing G protein recruitment, whereas the cAMP assay, performed in whole cells, reflects a physiologically relevant downstream second messenger.
The hFFA2-eYFP and hFFA3-eYFP Flp-In T-Rex 293 cell lines were maintained in Dulbecco’s modified Eagle mMedium (DMEM, ThermoFisher #11965092) supplemented with 10% (v/v) fetal bovine serum, 100 U/mL penicillin, 100 μg/mL streptomycin, 5 μg/mL blasticidin S, and 200 μg/mL hygromycin B and incubated at 37 °C and 5% CO2 in a humidified incubator. Cells were passaged at 70–80% confluency.
To determine the compound’s ability to activate or inhibit the Gi-coupled FFA2 or FFA3, intracellular cAMP concentrations were determined using Flp-In T-Rex293 cells induced to express hFFA2-eYFP or hFFA3-eYFP. Experiments were carried out using a homogeneous time-resolved FRET-based detection kit (CisBio, PerkinElmer #62AM9PEC) according to the manufacturer’s protocol. The day before the assay, 10,000 cells/well were plated in DMEM supplemented with penicillin/streptomycin (100 units/mL and […], respectively), 5 μg/mL blasticidin S, and 200 μg/mL hygromycin B in 96-well cell culture microplates (Greiner Bio-One) and induced to express hFFA2-eYFP or hFFA3-YFP with 100 ng/mL doxycycline.
In antagonist mode, the cells were pre-incubated for 20 min with antagonist test compounds in HBSS together with 50 μM IBMX at rt. Then, the cells were further incubated for 25 min at rt in HBSS with the agonist compound, sodium propionate at EC80 (51.4 μM for FFA2, 13.2 μM for FFA3), and 3 μM forskolin. Reactions were stopped, and the output was measured with an Envision plate reader using a time-resolved fluorescence protocol, measuring the light emission at 620 and 665 nm. All analyses were performed in triplicate and analyzed using GraphPad Prism (version 9).

[2] = Microsomal stability; type: in vitro ADME, mouse
Experimental: The assay was performed in duplicates essentially as described previously,[58] using male CD1 mouse liver microsomes (Thermo Fischer Scientific, 20 mg/mL), NADPH-regenerating agent Solution A and Solution B (Promega), potassium phosphate buffer (100 mM, pH 7.4), and test compounds (1 mM, diluted from 10 mM DMSO stock in the buffer). The samples were analyzed in an Agilent 6130 Mass Spectrometer instrument using electron spray ionization (ESI) coupled to an Agilent 1200 HPLC system (ESI-LCMS) with a C18 reverse phase column (Zorbax Eclipse XBD-C18, 4.6 mm × 50 mm) using a linear gradient of the binary solvent system of 100% mobile phase A (water:MeCN:formic acid, 95:5:0.1 v/v%) to 100% mobile phase B (MeCN:formic acid, 100:0.1 v/v %) in 6 min, with a flow rate of 1 mL/min.
To a pre-warmed solution of potassium phosphate buffer (135.6 μL) in an Eppendorf tube at 37 °C were added Solution A (7.5 μL), Solution B (1.5 μL), microsomes (3.9 μL), and the test compound (1 mM, 1.5 μL, final concentration = 10 μM). The tube was briefly vortexed and incubated at 37 °C in a thermomixer. At 0, 15, 30, 45, and 60 min, 25 μL of each sample was transferred to an ice-cold solution containing an internal standard (5 μM in MeCN, 12.5 μL). The sample was briefly vortexed and centrifuged for 5 min at 10.000g. The supernatant (25 μL) was transferred to HPLC vial and analyzed by ESI-LCMS in single ion mode. The data was analyzed using GraphPad Prism (version 9).

[3] = Lipophilicity (logD7.4), octanol/PBS7.4 shake flask; type: physicochemical; conditions: 1-octanol/PBS7.4, pH 7.4; mean of two independent experiments
Experimental: The assay was performed in duplicates essentially as previously described.[58] A glass vial with a screw cap (8 mL) was charged with the test compound (40 μL, 10 mM in DMSO), PBS7.4 (0.01 M, 1980 μL), and 1-octanol (1980 μL). The vial was capped and sealed with a Parafilm and shaken at 700 rpm using an IKA KS 125 basic shaker for 24 h at 25 °C. The Parafilm was removed, and the sample was allowed to equilibrate for 1 h before analysis. One hundred microliters of the octanol phase was withdrawn and diluted 1:10 with MeOH (+0.1% TFA)/MilliQ water (4:1, v/v) and analyzed by HPLC. The interface was removed, and the PBS7.4 phase analyzed directly by HPLC. All analysis was performed in duplicates, and log D7.4 values were calculated from the peak areas (mAU·min) and adjusted for difference in injection volume and concentration-absorption effects from the solvents, using two calibration points per compound per solvent, and dilution of the octanol phase.

[4] = target: T2, human FFA2-eYFP (Homo sapiens, UniProt O15552); test: [35S]GTPγS incorporation assay, membranes of Flp-In T-Rex 293 cells; type: biochemical; conditions: for GTPγS pIC50: hFFA2, propionate at EC80, mean ± SEM, three or more experiments; for LLEGTPγS: pIC50, GTPγS – ClogP
T2 construct: expressed in transfected cells; host or cells: membranes of Flp-In T-Rex 293 cells induced to express the construct
T2 sequence (O15552 1-330): T1 sequence (O15552 1-330)
Experimental: as §1
Functional activity of the compounds were tested in a [^35S]GTPγS incorporation assay using membranes of Flp-In T-Rex 293 cells induced to express human FFA2-eYFP. […] The reaction was initiated by addition of [^35S]GTPγS (100 nCi per reaction) containing 1 μM GDP and incubated at 30 °C for 60 min. The reaction was terminated by rapid vacuum filtration through GF/C glass fiber filter-bottom 96-well microplates (PerkinElmer Life Sciences, Beaconsfield, UK) using a UniFilter FilterMate Harvester (PerkinElmer). Unbound radioligands were removed from filters by three washes with ice-cold PBS. MicroScint-20 (PerkinElmer) was added to dried filters, and [^35S]GTPγS binding was quantified by liquid scintillation spectroscopy.

[5] = Kinetic aqueous solubility; type: physicochemical; conditions: phosphate buffer; kinetic solubility in PBS at pH 7.4 and 25 °C
Experimental: Twenty microliters of a 10 mM compound stock solution in DMSO was added to an Eppendorf tube containing 980 μL of phosphate buffer (10 mM, pH = 7.4). The samples were incubated in an Eppendorf Thermomixer (25 °C, 800 rpm) for 24 h. Afterward, the samples were centrifuged for 5 min at 11,000 rpm and the supernatant was filtered (0.2 μm PTFE membrane) before analysis by HPLC. Each compound was analyzed in duplicate. The solubility was calculated from the peak area relative to the reference samples (200 μM in MeOH/MilliQ H2O, 60/40, v/v).

[6] = % recovered after 60 min, mouse liver microsomes

cAMP pIC50 [1] | LLEcAMP [1] | LLEcAMP-logD [1] | IC50 ([1]; supplementary CSV) [nM] | microsomal stability [2, 6] [%] | microsomal stability ([2]; supplementary CSV) [%] | logD at 25 h [3] | GTPγS pIC50 [4] | LLEGTPγS [4] | increased potency over CATPB (3) ([4]; vs 3) | increase in potency over TUG-1958 (4) ([4]; vs 4) [fold] | solubility at 24 h [5] [µM] | hFFA2 cAMP (pIC50) ([1]; supplementary CSV) | Compound
8.30 ± 0.12 | 5.24 | 7.04 | 5.62 | 89 | 89 | 1.26 ± 0.07 | 8.07 ± 0.08 | 5.01 | more than 10 fold | 4 | 163 (≈ 65.8 µg/mL) | – | Cc1cccc(CC(=O)N[C@@H](Cc2ccc(C(F)(F)F)cc2)Cc2nnn[nH]2)c1 [Compound 8, (S)-N-(1-(1H-Tetrazol-5-yl)-3-(4-(trifluoromethyl)phenyl)propan-2-yl)-2-(m-tolyl)acetamide]
8.15 ± 0.05 | 4.87 | 6.35 | 6.61 | 92 | 92 | 1.8 ± 0.09 | 8.53 ± 0.19 | 5.25 | – | – | 138 (≈ 58.5 µg/mL) | – | O=C(Cc1cccc(Cl)c1)N[C@@H](Cc1ccc(C(F)(F)F)cc1)Cc1nnn[nH]1 [Compound 16e, (S)-N-(1-(1H-Tetrazol-5-yl)-3-(4-(trifluoromethyl)phenyl)propan-2-yl)-2-(3-chlorophenyl)acetamide]
8.21 ± 0.09 | 4.78 | – | – | – | – | – | 8.30 ± 0.21 | 4.87 | – | – | 121 (≈ 56.7 µg/mL) | 8.19 ± 0.19 | O=C(Cc1cccc(Br)c1)N[C@@H](Cc1ccc(C(F)(F)F)cc1)Cc1nnn[nH]1 [Compound 16g, (S)-N-(1-(1H-Tetrazol-5-yl)-3-(4-(trifluoromethyl)phenyl)propan-2-yl)-2-(3-bromophenyl)acetamide]
8.26 ± 0.08 | 4.57 | – | 6.03 | – | – | – | 8.38 ± 0.05 | 4.69 | – | – | 81 (≈ 41.7 µg/mL) | – | O=C(Cc1cccc(I)c1)N[C@@H](Cc1ccc(C(F)(F)F)cc1)Cc1nnn[nH]1 [Compound 16h, (S)-N-(1-(1H-Tetrazol-5-yl)-3-(4-(trifluoromethyl)phenyl)propan-2-yl)-2-(3-iodophenyl)acetamide]
